Experimental data as given in patent US20080194574A1, “Pyrazine Derivatives As Effective Compounds Against Infectious Diseases” (AXXIMA PHARMACEUTICALS AG, priority 2003, published 2008).

These molecules were tested against T1, viral kinase pUL-97 (Human cytomegalovirus, UniProt P16788) (assay: UL97 kinase assay on Immobilon plate). Conditions: inhibition of UL 97 kinase activity; class by IC50 / % inhibition at 10 μM or 100 μM; read-out: Activity Class [A, B, C].
T1 construct: The pUL-97 gene was cloned into a baculovirus vector; GST (glutathione S-transferase) (N); made in house; host or cells: Sf9 insect cells, baculovirus
Type: biochemical
Method: UL97 Kinase-Assay on Immobilon Plate
The effect of pyrazine derivatives of this invention was tested on the activity of the viral kinase pUL-97. This kinase is derived from human cytomegalovirus (HCMV) (M. Marschall et al., Journal of General Virology, 2001, 82, 1439-1450). The pUL-97 gene was cloned into a baculovirus vector in order to produce GST (glutathione S-transferase) fusion protein. Insect cells (Sf9) were infected and GST-UL-97 purified via glutathione affinity columns according to standard procedures.
The pUL-97 kinase reaction was performed as described (M. Marschall et al., Journal of General Virology, 2001, 82, 1439-1450). Briefly, 10 μl Assay buffer (3 μM ATP, 60 μg/ml myelin basic protein (MBP) as substrate), 1.0 μCi γ-[^33P]ATP and 10 μl Basic buffer (20 mM Tris-HCl pH7.5, 0.5 mM MnCl2, 1 mM DTT (Dithiothreitol)) were given to the test tube before adding various concentrations of pyrazine derivatives. The reaction was started by adding 0.2 μl pUL-97 kinase, purified from infected Sf9-insect cells as described above. The total volume was adjusted with Basic buffer to a final volume of 30 μl. The reaction mix was incubated for 1 hr at 30° C. For negative control, 10 μl 0.1M EDTA (Ethylene Diamine tetraacetate) was added to reaction mix before addition of pUL-97 protein kinase. The reaction was stopped by addition of 10 μl 0.1 M EDTA.
Measuring Incorporation of Radioactivity:
The Immobilon plate (Millipore) was rinsed with 50 μl methanol/well. Following addition of 100 μl 0.1 M EDTA, 20 μl of each kinase reaction mix was added to one well of the Immobilon plate. Each well was washed 4× with 250 μl 0.75% phosphoric acid and 1× with 50 μl methanol. After addition of 50 μl scintillation cocktail (Roth, Germany) per well incorporation of radioactivity was measured using a Betareader (Wallac) and enzymatic activity calculated.

T1 sequence (P16788 whole entry): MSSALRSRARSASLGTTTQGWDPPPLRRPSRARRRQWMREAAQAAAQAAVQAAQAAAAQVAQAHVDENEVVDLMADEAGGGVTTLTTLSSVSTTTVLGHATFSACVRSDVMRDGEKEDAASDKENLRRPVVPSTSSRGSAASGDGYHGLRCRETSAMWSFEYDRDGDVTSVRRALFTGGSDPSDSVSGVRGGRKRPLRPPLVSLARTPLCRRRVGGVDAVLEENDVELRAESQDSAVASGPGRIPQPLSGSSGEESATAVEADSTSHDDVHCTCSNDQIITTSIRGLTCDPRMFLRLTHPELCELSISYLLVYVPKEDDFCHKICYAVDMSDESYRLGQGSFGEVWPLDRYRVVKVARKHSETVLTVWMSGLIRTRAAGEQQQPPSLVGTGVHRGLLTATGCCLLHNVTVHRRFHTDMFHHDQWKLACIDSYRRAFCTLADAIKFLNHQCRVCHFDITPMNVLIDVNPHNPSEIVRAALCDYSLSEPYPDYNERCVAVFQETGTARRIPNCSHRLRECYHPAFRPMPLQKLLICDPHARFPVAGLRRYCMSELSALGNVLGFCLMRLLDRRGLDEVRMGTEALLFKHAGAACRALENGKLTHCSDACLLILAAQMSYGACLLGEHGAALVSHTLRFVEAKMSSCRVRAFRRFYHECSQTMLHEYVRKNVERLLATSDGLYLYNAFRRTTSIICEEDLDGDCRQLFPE

Structure (SMILES)	IC50 [µM]
COc1ccc(-c2cncc(N3CCN(c4ccc(Cl)c(Cl)c4)CC3)n2)cc1OC [compound 371, 4-(3,4-Dichloro-phenyl)-6′-(3,4-dimethoxy-phenyl)-3,4,5,6-tetrahydro-2H-[1,2′]bipyrazinyl]	10 to 100
COc1ccc(-c2cncc(N3CCN(c4ccccn4)CC3)n2)cc1OC [compound 306, 6′-(3,4-Dimethoxy-phenyl)-4-pyridin-2-yl-3,4,5,6-tetrahydro-2H-[1,2′]bipyrazinyl]	1 to 10
COc1cccc(N2CCN(c3cncc(-c4cc5ccccc5o4)n3)CC2)c1 [compound 285, 6′-Benzofuran-2-yl-4-(3-methoxy-phenyl)-3,4,5,6-tetrahydro-2H-[1,2′]bipyrazinyl]	1 to 10
CSc1ccc(-c2cncc(N3CCN(c4cnccn4)CC3)n2)cc1 [compound 314, 6-(4-Methylsulfanyl-phenyl)-2′,3′,5′,6′-tetrahydro-[2,1′;4′,2″]terpyrazine]	1 to 10

Continued, values first:

IC50 [µM]	Structure (SMILES)
1 to 10	Cc1ccc(-c2cncc(N3CCN(c4ccc(F)cc4)CC3)n2)cc1 [compound 233, 4-(4-Fluoro-phenyl)-6′-p-tolyl-3,4,5,6-tetrahydro-2H-[1,2′]bipyrazinyl]
1 to 10	COc1ccc(N2CCN(c3cncc(-c4ccc(F)cc4)n3)CC2)cc1 [compound 363, 6′-(4-Fluoro-phenyl)-4-(4-methoxy-phenyl)-3,4,5,6-tetrahydro-2H-[1,2′]bipyrazinyl]

Same assay, conditions: inhibition of UL 97 kinase activity; class by IC50 / % inhibition at 10 or 100 μM; read-out: Activity Class [A, B, C]

Structure (SMILES)	IC50 [µM]
CC(=O)c1ccc(N2CCN(c3cncc(-c4csc5ccccc45)n3)CC2)cc1 [compound 152, 1-[4-(6′-Benzo[b]thiophen-3-yl-2,3,5,6-tetrahydro-[1,2′]bipyrazinyl-4-yl)-phenyl]-ethanone]	1 to 10
CC(=O)c1ccc(N2CCN(c3cncc(-c4cccc5ccccc45)n3)CC2)cc1 [compound 149, 1-[4-(6′-Naphthalen-1-yl-2,3,5,6-tetrahydro-[1,2′]bipyrazinyl-4-yl)-phenyl]-ethanone]	10 to 100
COc1ccc(-c2cncc(N3CCN(c4cccc5[nH]ccc45)CC3)n2)cc1 [compound 38, 4-(1H-Indol-4-yl)-6′-(4-methoxy-phenyl)-3,4,5,6-tetrahydro-2H-[1,2′]bipyrazinyl]	1 to 10
CC(=O)c1cccc(-c2cncc(N3CCN(c4ccccc4F)CC3)n2)c1 [compound 115, 1-{3-[4-(2-Fluoro-phenyl)-3,4,5,6-tetrahydro-2H-[1,2′]bipyrazinyl-6′-yl]-phenyl}-ethanone]	1 to 10
COc1cccc(-c2cncc(N3CCN(c4ccccc4)CC3)n2)c1 [compound 110, 6′-(3-Methoxy-phenyl)-4-phenyl-3,4,5,6-tetrahydro-2H-[1,2′]bipyrazinyl]	1 to 10
Cc1ccccc1-c1cncc(N2CCN(c3ccccc3F)CC2)n1 [compound 124, 4-(2-Fluoro-phenyl)-6′-o-tolyl-3,4,5,6-tetrahydro-2H-[1,2′]bipyrazinyl]	10 to 100
CCOc1ccc(-c2cncc(N3CCN(c4ccc(OC)c(OC)c4)CC3)n2)cc1 [compound 45, 4-(3,4-Dimethoxy-phenyl)-6′-(4-ethoxy-phenyl)-3,4,5,6-tetrahydro-2H-[1,2′]bipyrazinyl]	1 to 10

Now from value to molecule:

IC50 [µM]	Structure (SMILES)
1 to 10	COc1ccc(-c2cncc(N3CCN(c4ccc(F)cc4)CC3)n2)cc1OC [compound 139, 6′-(3,4-Dimethoxy-phenyl)-4-(4-fluoro-phenyl)-3,4,5,6-tetrahydro-2H-[1,2′]bipyrazinyl]
1 to 10	c1ccc(-c2cncc(N3CCN(c4ccncc4)CC3)n2)cc1 [compound 67, 6′-Phenyl-4-pyridin-4-yl-3,4,5,6-tetrahydro-2H-[1,2′]bipyrazinyl]
10 to 100	CC(C)(C)c1ccc(-c2cncc(N3CCN(c4ccccc4)CC3)n2)cc1 [compound 95, 6′-(4-tert-Butyl-phenyl)-4-phenyl-3,4,5,6-tetrahydro-2H-[1,2′]bipyrazinyl]
1 to 10	Fc1ccc(N2CCN(c3cncc(-c4ccc(C(F)(F)F)cc4)n3)CC2)cc1 [compound 180, 4-(4-Fluoro-phenyl)-6′-(4-trifluoromethyl-phenyl)-3,4,5,6-tetrahydro-2H-[1,2′]bipyrazinyl]
